PMC11928319 (Nature Plants, 2025)
Values joined by “and” are separate entries in the source; they are usually repeats but may differ in a detail not shown here. Identical values can stand only once.

Test system: EFR
Assay: Expression of EFR normalized to UBQ5 in roots (RT–qPCR) and pEFR::NLS–3*mVenus reporter
Assay type: in vivo, Arabidopsis thaliana
Conditions: timepoint 1h, single samples
Description: Axenic 14-day-old seedlings (see ‘Agar-based cultivation of axenic plants and co-cultivation with bacteria, bacterial supernatants and elicitors’) were submerged in 12 ml of 10 mM MgSO4 supplemented with 1 µM elicitor or bacteria, which were directly harvested from 0.5× TSB plates and resuspended in 10 mM MgSO4. Bacterial concentration was adjusted to OD600 = 1.5, if not indicated differently. For a heat-killed bacterial inoculum, resuspended bacteria were incubated in boiling water for 30 min. […] For co-exposure to flg22 and AtPep1, seedlings were submerged as described for 1 h, residual liquid was removed and the plants were incubated in a cultivation chamber for 4 h prior to harvesting.
For reverse transcription quantitative PCR (RT–qPCR), roots of eight to ten plants grown on one square plate were pooled for one sample. Frozen roots were homogenized using a TissueLyser II (QIAGEN, 2 × 29 pps for 40 s) with pre-cooled adaptors. RNA was extracted using the Plant RNA Kit (my-Budget) according to the user manual and eluted in 35 µl of elution buffer. RNA concentrations were measured using a spectrometer (Nanodrop OneC Microvolume UV-Vis Spectrophotometer). Complementary DNA was synthesized from 300–500 ng of RNA using the RevertAid H Minus First Strand cDNA Synthesis Kit (ThermoScientific) in a 20-µl reaction according to the user manual. In brief, 1 µl of oligo(dT)18 primer was mixed with RNA in a final volume of 12 µl and incubated at 65 °C for 5 min. Afterwards, 4 µl of 5× Reaction buffer, 2 µl of 10 mM dNTPs, 1 µl of RiboLock RNase Inhibitor (20 U µl^−1) and 1 µl of RevertAid H Minus M-MuLV Reverse Transcriptase (200 U µl^−1) were added, and the reaction was incubated at 42 °C for 60 min followed by heat inactivation at 70 °C for 5 min. cDNA was diluted 1:10 prior to qPCR using the iQ SYBR Green Supermix (Bio-Rad). […]

Ac-SKEKFERTKPHVNVGTIG [elf18]
EFR fold_change (Replicate I): 1.977 and 2.517 and 1.4157 and 1.558 | EFR fold_change (Replicate II): 1.051 and 1.166 and 0.9721 and 1.1066 | EFR fold_change (Replicate III): 1.492 and 1.557 and 2.228 and 1.3126
